# How the values were obtained:
# Test in all cases: Minimum inhibitory concentration (MIC)
# Format in all cases: cell-based
# [1] = tested on: Acinetobacter calcoaceticus AC 54; conditions: Acinetobacter calcoaceticus, AC54, Acinetobacter calcoaceticus AC 54, Gram -
# Method in brief: (§1)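 Test compounds were dissolved at 5000 μg/ml (stock) in 0.1N aqueous KOH or in sterilized distilled water, then diluted with sterile water to a 1000 μg/ml standard solution. MICs were determined by the Japan Society of Chemotherapy standard method.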
# [2] = tested on: Bacillus subtilis ATCC 6633; conditions: ATCC6633; Bacillus subtilis ATCC 6633, Gram +; read-out: Minimum inhibitory concentration (MIC)
# Method in brief: as §1
# [3] = tested on: Enterobacter aerogenes ATCC 13048; conditions: Klebsiella aerogenes, ATCC13048, Enterobacter aerogenes ATCC 13048, Gram -
# Method in brief: as §1
# Enterobacter cloacae 963 = conditions: Enterobacter cloacae 963, Gram -
# Method in brief: as §1
# [4] = tested on: Escherichia coli NIHJ JC-2; conditions: NIHJJC2; Escherichia coli NIHJ JC-2, Gram -
# Method in brief: as §1
# [5] = tested on: Klebsiella pneumoniae PCI 602; conditions: Klebsiella pneumoniae, PCI602, Klebsiella pneumoniae PCI 602, Gram -; read-out: Minimum inhibitory concentration (MIC)
# Method in brief: as §1
# [6] = tested on: Pseudomonas aeruginosa E-2; conditions: E2; Pseudomonas aeruginosa E-2, Gram -
# Method in brief: as §1
# [7] = tested on: Pseudomonas aeruginosa NCTC 10490; conditions: Pseudomonas aeruginosa, NCTC10490, Pseudomonas aeruginosa NCTC 10490, Gram -
# Method in brief: as §1
# [8] = tested on: Staphylococcus aureus FDA 209P JC-1; conditions: FDA209P; Staphylococcus aureus FDA 209P JC-1, Gram +
# Method in brief: as §1
# [9] = tested on: Staphylococcus aureus IID 803; conditions: IID803; Staphylococcus aureus IID 803, Gram +; read-out: Minimum inhibitory concentration (MIC)
# Method in brief: as §1
# [10] = tested on: Staphylococcus epidermidis IAM-1296; conditions: Staphylococcus epidermidis, IAM1296, Staphylococcus epidermidis IAM-1296, Gram +
# Method in brief: as §1
# [11] = tested on: Streptococcus faecalis IID 682; conditions: Enterococcus faecalis, IID682, Streptococcus faecalis IID 682, Gram +
# Method in brief: as §1
structure (smiles),measurement,setting,value
"CC1COc2c(N3CCN(C)CC3)c(F)cc3c(=O)c(C(=O)O)cn1c23 (racemic) [Ofloxacin, reference compound]",MIC,[1],0.39 µg/mL
same,MIC,[2],0.1 µg/mL
same,MIC,[3],0.1 µg/mL
same,MIC,Enterobacter cloacae 963,0.2 µg/mL
same,MIC,[4],0.1 µg/mL
same,MIC,[5],0.05 µg/mL
same,MIC,[6],1.56 µg/mL
same,MIC,[7],1.56 µg/mL
same,MIC,[8],0.39 µg/mL
same,MIC,[9],0.39 µg/mL
same,MIC,[10],0.78 µg/mL
same,MIC,[11],1.56 µg/mL

# Source: patent US4808584A, “Quinolinecarboxylic acid derivatives and antibacterial agent containing the same” (Kanebo, Ltd., priority 1987, dated 1989)
